Tests used:
Test in all cases: relative viability (nuclei count vs DMSO), 5 days (fraction); higher = more cells survive
201T = system: 201T
Outline: (§1)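 Relative viability divides the nuclei count in treated wells by that in vehicle wells. Lung cancer cell lines were seeded in 1536-well plates, dosed by pin tool the next day, and fixed and stained after 5 days in one step with final 0.05% Triton X-100, 1% formaldehyde and 1 ug/ml Hoechst. Dosing was a single drug or a fixed anchor-drug dose plus five library-drug doses (not always all listed) in √10 steps, and values are medians of duplicate plates imaged at 4×.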

ABC-1 = system: ABC-1
Outline: as §1

BEN = system: BEN
Outline: as §1

CAL-12T = system: CAL-12T
Outline: as §1

COR-L 105 = system: COR-L 105
Outline: as §1

EKVX = system: EKVX
Outline: as §1

EMC-BAC-2 = system: EMC-BAC-2
Outline: as §1

HCC-15 = system: HCC-15
Outline: as §1

HCC-44 = system: HCC-44
Outline: as §1

LK-2 = system: LK-2
Outline: as §1

LU99A = system: LU99A
Outline: as §1

NCI-H1563 = system: NCI-H1563
Outline: as §1

NCI-H1651 = system: NCI-H1651
Outline: as §1

NCI-H2023 = system: NCI-H2023
Outline: as §1

NCI-H322M = system: NCI-H322M
Outline: as §1

NCI-H358 = system: NCI-H358
Outline: as §1

NCI-H460 = system: NCI-H460
Outline: as §1

NCI-H520 = system: NCI-H520
Outline: as §1

NCI-H522 = system: NCI-H522
Outline: as §1

NCI-H727 = system: NCI-H727
Outline: as §1

NCI-H838 = system: NCI-H838
Outline: as §1

PC-3 [JPC-3] = system: PC-3 [JPC-3]
Outline: as §1

SW 900 = system: SW 900
Outline: as §1

Cc1csc(=NC2CCCCC2)n1/N=C/c1ccc(O)c(O)c1O [MIM1] + N=C(N)NC(=N)NCCc1ccccc1 [Phenformin] (partner 250 µM)
relative viability (201T; first compound 0.2 µM): 0.456
relative viability (201T; first compound 0.6325 µM): 0.414
relative viability (201T; first compound 2 µM): 0.451
relative viability (201T; first compound 6.325 µM): 0.345
relative viability (201T; first compound 20 µM): 0.321
relative viability (ABC-1; first compound 0.2 µM): 0.228
relative viability (ABC-1; first compound 0.6325 µM): 0.261
relative viability (ABC-1; first compound 2 µM): 0.231
relative viability (ABC-1; first compound 6.325 µM): 0.201
relative viability (ABC-1; first compound 20 µM): 0.189
relative viability (BEN; first compound 0.2 µM): 0.261
relative viability (BEN; first compound 0.6325 µM): 0.236
relative viability (BEN; first compound 2 µM): 0.236
relative viability (BEN; first compound 6.325 µM): 0.28
relative viability (BEN; first compound 20 µM): 0.213
relative viability (CAL-12T; first compound 0.2 µM): 0.614
relative viability (CAL-12T; first compound 0.6325 µM): 0.467
relative viability (CAL-12T; first compound 2 µM): 0.586
relative viability (CAL-12T; first compound 6.325 µM): 0.372
relative viability (CAL-12T; first compound 20 µM): 0.119
relative viability (COR-L 105; first compound 0.2 µM): 0.513
relative viability (COR-L 105; first compound 0.6325 µM): 0.461
relative viability (COR-L 105; first compound 2 µM): 0.404
relative viability (COR-L 105; first compound 6.325 µM): 0.316
relative viability (COR-L 105; first compound 20 µM): 0.307
relative viability (EKVX; first compound 0.2 µM): 0.253
relative viability (EKVX; first compound 0.6325 µM): 0.144
relative viability (EKVX; first compound 2 µM): 0.213
relative viability (EKVX; first compound 6.325 µM): 0.209
relative viability (EKVX; first compound 20 µM): 0.198
relative viability (EMC-BAC-2; first compound 0.2 µM): 0.547
relative viability (EMC-BAC-2; first compound 0.6325 µM): 0.455
relative viability (EMC-BAC-2; first compound 2 µM): 0.515
relative viability (EMC-BAC-2; first compound 6.325 µM): 0.48
relative viability (EMC-BAC-2; first compound 20 µM): 0.208
relative viability (HCC-15; first compound 0.2 µM): 0.501
relative viability (HCC-15; first compound 2 µM): 0.51
relative viability (HCC-15; first compound 6.325 µM): 0.162
relative viability (HCC-15; first compound 20 µM): 0.114
relative viability (HCC-44; first compound 0.2 µM): 0.239
relative viability (HCC-44; first compound 0.6325 µM): 0.138
relative viability (HCC-44; first compound 2 µM): 0.111
relative viability (HCC-44; first compound 6.325 µM): 0.154
relative viability (HCC-44; first compound 20 µM): 0.13
relative viability (LK-2; first compound 0.2 µM): 0.602
relative viability (LK-2; first compound 2 µM): 0.49
relative viability (LK-2; first compound 6.325 µM): 0.147
relative viability (LK-2; first compound 20 µM): 0.148
relative viability (LU99A; first compound 0.2 µM): 0.976
relative viability (LU99A; first compound 0.6325 µM): 0.753
relative viability (LU99A; first compound 2 µM): 0.819
relative viability (LU99A; first compound 6.325 µM): 0.702
relative viability (LU99A; first compound 20 µM): 0.325
relative viability (NCI-H1563; first compound 0.2 µM): 0.672
relative viability (NCI-H1563; first compound 0.6325 µM): 0.734
relative viability (NCI-H1563; first compound 2 µM): 0.706
relative viability (NCI-H1563; first compound 6.325 µM): 0.631
relative viability (NCI-H1563; first compound 20 µM): 0.478
relative viability (NCI-H1651; first compound 0.2 µM): 0.351
relative viability (NCI-H1651; first compound 0.6325 µM): 0.275
relative viability (NCI-H1651; first compound 2 µM): 0.39
relative viability (NCI-H1651; first compound 6.325 µM): 0.291
relative viability (NCI-H1651; first compound 20 µM): 0.165
relative viability (NCI-H2023; first compound 0.2 µM): 0.417
relative viability (NCI-H2023; first compound 0.6325 µM): 0.416
relative viability (NCI-H2023; first compound 2 µM): 0.294
relative viability (NCI-H2023; first compound 6.325 µM): 0.127
relative viability (NCI-H2023; first compound 20 µM): 0.0931
relative viability (NCI-H322M; first compound 0.2 µM): 0.905
relative viability (NCI-H322M; first compound 0.6325 µM): 0.809
relative viability (NCI-H322M; first compound 2 µM): 0.766
relative viability (NCI-H322M; first compound 6.325 µM): 0.735
relative viability (NCI-H322M; first compound 20 µM): 0.36
relative viability (NCI-H358; first compound 0.2 µM): 0.373
relative viability (NCI-H358; first compound 0.6325 µM): 0.296
relative viability (NCI-H358; first compound 2 µM): 0.299
relative viability (NCI-H358; first compound 6.325 µM): 0.135
relative viability (NCI-H358; first compound 20 µM): 0.118
relative viability (NCI-H460; first compound 0.2 µM): 0.497
relative viability (NCI-H460; first compound 0.6325 µM): 0.531
relative viability (NCI-H460; first compound 2 µM): 0.387
relative viability (NCI-H460; first compound 6.325 µM): 0.172
relative viability (NCI-H460; first compound 20 µM): 0.0325
relative viability (NCI-H520; first compound 0.2 µM): 0.793
relative viability (NCI-H520; first compound 0.6325 µM): 0.512
relative viability (NCI-H520; first compound 2 µM): 0.561
relative viability (NCI-H520; first compound 6.325 µM): 0.447
relative viability (NCI-H520; first compound 20 µM): 0.323
relative viability (NCI-H522; first compound 0.2 µM): 0.697
relative viability (NCI-H522; first compound 0.6325 µM): 0.665
relative viability (NCI-H522; first compound 2 µM): 0.672
relative viability (NCI-H522; first compound 6.325 µM): 0.52
relative viability (NCI-H522; first compound 20 µM): 0.571
relative viability (NCI-H727; first compound 0.2 µM): 0.513
relative viability (NCI-H727; first compound 0.6325 µM): 0.559
relative viability (NCI-H727; first compound 2 µM): 0.481
relative viability (NCI-H727; first compound 6.325 µM): 0.561
relative viability (NCI-H727; first compound 20 µM): 0.301
relative viability (NCI-H838; first compound 0.2 µM): 0.543
relative viability (NCI-H838; first compound 0.6325 µM): 0.621
relative viability (NCI-H838; first compound 2 µM): 0.562
relative viability (NCI-H838; first compound 6.325 µM): 0.354
relative viability (NCI-H838; first compound 20 µM): 0.14
relative viability (PC-3 [JPC-3]; first compound 0.2 µM): 0.458
relative viability (PC-3 [JPC-3]; first compound 0.6325 µM): 0.488
relative viability (PC-3 [JPC-3]; first compound 2 µM): 0.517
relative viability (PC-3 [JPC-3]; first compound 6.325 µM): 0.469
relative viability (PC-3 [JPC-3]; first compound 20 µM): 0.361
relative viability (SW 900; first compound 0.2 µM): 0.683
relative viability (SW 900; first compound 0.6325 µM): 0.712
relative viability (SW 900; first compound 2 µM): 0.778
relative viability (SW 900; first compound 6.325 µM): 0.495
relative viability (SW 900; first compound 20 µM): 0.176

Source: the supplement of paper PMC10307832
